According to ChEMBL document CHEMBL4732086, “Targeting nuclear protein TDP-43 by cell division cycle kinase 7 inhibitors: A new therapeutic approach for amyotrophic lateral sclerosis” (Eur J Med Chem, 2021):
pIC50: −log10 of the molar value. Calls of active or inactive are those of the source. The calls are words filed in the database; no cut-off is given here.

Legend:
[1] = target: CDC7/DBF4 (Cell division cycle 7-related protein kinase/Activator of S phase kinase) (Homo sapiens, UniProt O00311); assay: Inhibition of recombinant human CDC7/Dbf4 expressed in baculovirus infected Sf9 insect cells assessed as inhibition of fluorescein labelled substrate phosphorylation in presence of ATP measured after 60 mins by TR-FRET assay
[2] = system: Caenorhabditis elegans; assay: Inhibition of CDC7 in transgenic Caenorhabditis elegans CK423 Bus-8(e2698) expressing human TDP-43 assessed as inhibition of TDP-43 phosphorylation at 75 uM measured after 6 days by Western blot assay; settings: time 6.0 day
[3] = target: T1, Tyrosine-protein kinase JAK3 (Homo sapiens) (UniProt P52333); assay: Inhibition of recombinant human GST-tagged JAK3 expressed in baculovirus expression system using Tyr-06 peptide as substrate at 10 uM incubated for 60 mins in presence of ATP by Z'-LYTE assay
T1 sequence (whole entry): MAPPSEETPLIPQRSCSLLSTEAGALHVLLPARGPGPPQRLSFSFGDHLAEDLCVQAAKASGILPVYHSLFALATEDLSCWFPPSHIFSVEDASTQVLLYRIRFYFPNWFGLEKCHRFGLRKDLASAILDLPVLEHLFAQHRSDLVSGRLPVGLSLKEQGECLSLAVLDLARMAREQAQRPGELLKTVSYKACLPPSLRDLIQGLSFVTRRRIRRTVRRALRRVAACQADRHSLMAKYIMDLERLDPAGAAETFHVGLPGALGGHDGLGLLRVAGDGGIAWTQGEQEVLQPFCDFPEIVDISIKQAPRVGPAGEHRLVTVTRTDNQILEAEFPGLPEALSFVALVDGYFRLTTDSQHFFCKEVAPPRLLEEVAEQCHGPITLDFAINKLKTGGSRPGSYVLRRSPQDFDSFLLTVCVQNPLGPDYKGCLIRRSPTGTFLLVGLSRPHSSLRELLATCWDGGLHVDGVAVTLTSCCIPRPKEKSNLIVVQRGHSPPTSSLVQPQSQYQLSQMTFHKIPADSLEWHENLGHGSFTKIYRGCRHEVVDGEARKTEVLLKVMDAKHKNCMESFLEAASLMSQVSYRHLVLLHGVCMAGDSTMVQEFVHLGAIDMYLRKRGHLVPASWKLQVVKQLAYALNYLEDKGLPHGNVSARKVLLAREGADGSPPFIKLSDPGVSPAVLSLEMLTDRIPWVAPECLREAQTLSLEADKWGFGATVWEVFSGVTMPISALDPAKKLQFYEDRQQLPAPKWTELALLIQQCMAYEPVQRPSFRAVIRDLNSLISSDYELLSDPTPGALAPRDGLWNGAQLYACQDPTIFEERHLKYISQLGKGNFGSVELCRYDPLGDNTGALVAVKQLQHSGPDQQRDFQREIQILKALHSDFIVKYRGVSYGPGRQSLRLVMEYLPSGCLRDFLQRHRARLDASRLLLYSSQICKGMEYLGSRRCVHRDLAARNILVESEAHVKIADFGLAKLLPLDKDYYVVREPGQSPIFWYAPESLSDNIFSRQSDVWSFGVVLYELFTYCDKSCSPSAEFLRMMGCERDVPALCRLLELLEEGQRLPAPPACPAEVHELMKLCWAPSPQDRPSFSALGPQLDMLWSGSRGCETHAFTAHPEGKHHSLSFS

[4] = system: SH-SY5Y; assay: Neuroprotective activity in human SH-SY5Y cells assessed by effect on TDP-43 levels preincubated for 1 hr followed by incubation with ethacrynic acid for 24 hrs measured at 10 uM by Western blot assay; format: functional, cell-based
[5] = system: Caenorhabditis elegans; assay: Inhibition of CDC7 in transgenic Caenorhabditis elegans CK423 Bus-8(e2698) expressing human TDP-43 assessed as inhibition of TDP-43 phosphorylation at 10 to 75 uM measured after 6 days by Western blot assay; settings: dose 10-75 µM, time 6.0 day
[6] = Toxicity in Prp-hTDP43 (A315T) mouse at 5 mg/kg, ip qd for 30 days; format: organism-based; settings: in vivo, 720 h, time 30 day
[7] = system: Mus musculus; assay: Neuroprotective activity in Prp-hTDP43 (A315T) transgenic amyotrophic lateral sclerosis mouse model assessed as decrease in clasping behavioural at 5 mg/kg, ip qd measured on week 3 by rotarod test; format: functional, organism-based; settings: time 3.0 weeks
[8] = system: Mus musculus; assay: Neuroprotective activity in Prp-hTDP43 (A315T) transgenic amyotrophic lateral sclerosis mouse model assessed as decrease in clasping behavioural at 5 mg/kg, ip qd measured on week 5 by rotarod test; format: functional, organism-based; settings: time 5.0 weeks
[9] = system: Mus musculus; assay: Neuroprotective activity in Prp-hTDP43 (A315T) mouse assessed by decrease in TDP-43 phosphorylation in spinal cord tissue at 5 mg/kg, ip qd for 30 days by Western blot assay; format: functional, organism-based; settings: time 30.0 day
[10] = system: SH-SY5Y; assay: Neuroprotective activity in human SH-SY5Y cells assessed as decrease in cytoplasmic TDP-43 preincubated for 1 hr followed by incubation with ethacrynic acid for 24 hrs measured at 10 uM by immunofluorescence assay; format: functional, cell-based

CDC7/DBF4 (Cell division cycle 7-related protein kinase/Activator of S phase kinase), sequence (Q9UBU7 whole entry): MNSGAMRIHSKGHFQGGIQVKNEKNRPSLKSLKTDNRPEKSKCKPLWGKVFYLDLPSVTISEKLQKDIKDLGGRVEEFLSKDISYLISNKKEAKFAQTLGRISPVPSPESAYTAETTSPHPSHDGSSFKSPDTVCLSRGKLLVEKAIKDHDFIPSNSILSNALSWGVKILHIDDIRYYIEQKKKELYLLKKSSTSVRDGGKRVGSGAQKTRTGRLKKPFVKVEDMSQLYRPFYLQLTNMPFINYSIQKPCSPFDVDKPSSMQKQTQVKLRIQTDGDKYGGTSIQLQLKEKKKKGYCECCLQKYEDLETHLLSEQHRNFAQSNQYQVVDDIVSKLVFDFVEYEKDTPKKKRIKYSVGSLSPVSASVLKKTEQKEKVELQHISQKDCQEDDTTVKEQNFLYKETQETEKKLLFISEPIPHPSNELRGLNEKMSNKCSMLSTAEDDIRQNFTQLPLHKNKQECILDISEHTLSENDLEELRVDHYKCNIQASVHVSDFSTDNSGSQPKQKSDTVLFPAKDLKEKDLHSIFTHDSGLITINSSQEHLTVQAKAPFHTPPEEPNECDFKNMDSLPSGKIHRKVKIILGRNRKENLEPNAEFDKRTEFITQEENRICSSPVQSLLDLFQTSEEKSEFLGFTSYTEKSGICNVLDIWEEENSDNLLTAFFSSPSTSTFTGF
CDC7/DBF4 (Cell division cycle 7-related protein kinase/Activator of S phase kinase), sequence (O00311 whole entry): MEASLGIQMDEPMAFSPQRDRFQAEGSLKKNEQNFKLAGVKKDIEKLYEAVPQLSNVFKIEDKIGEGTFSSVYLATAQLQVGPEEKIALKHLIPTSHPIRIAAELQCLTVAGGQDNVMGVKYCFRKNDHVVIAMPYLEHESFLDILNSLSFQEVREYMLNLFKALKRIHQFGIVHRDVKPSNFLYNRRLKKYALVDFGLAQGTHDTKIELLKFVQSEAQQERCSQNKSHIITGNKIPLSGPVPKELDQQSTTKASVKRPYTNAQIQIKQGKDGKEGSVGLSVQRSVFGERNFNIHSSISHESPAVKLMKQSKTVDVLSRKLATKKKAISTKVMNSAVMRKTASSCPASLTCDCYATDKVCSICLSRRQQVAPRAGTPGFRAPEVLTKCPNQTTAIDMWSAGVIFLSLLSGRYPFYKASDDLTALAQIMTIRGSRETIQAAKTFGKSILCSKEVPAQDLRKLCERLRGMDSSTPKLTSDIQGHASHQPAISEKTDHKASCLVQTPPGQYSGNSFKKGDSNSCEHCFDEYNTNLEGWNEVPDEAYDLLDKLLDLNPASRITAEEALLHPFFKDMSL

pIC50 [1] | inhibition [2] | inhibition [3] | Compound | Activity [4] | inhibition [5] | Activity [6] | Activity [7] | Activity [8] | Activity [9] | Activity [10]
6.70 | Active | inactive | c1ccc(CSc2ncnc3[nH]cnc23)cc1 | inactive |  |  |  |  |  | 
6.85 |  | inactive | Clc1cccc(CSc2ncnc3[nH]cnc23)c1 | inactive | inactive |  |  |  |  | Active

Compound | pIC50 [1] | inhibition [2] | inhibition [3] | Activity [4] | inhibition [5] | Activity [6] | Activity [7] | Activity [8] | Activity [9] | Activity [10]
Brc1ccccc1CSc1ncnc2[nH]cnc12 | 6.57 |  | inactive | inactive | inactive | Non-Toxic | Active | Active | Active | 
